Reference: PMC3170879 (Chemmedchem, 2011)

Molecular target: T1, steroid sulfatase (STS) (Homo sapiens, UniProt P08842)
T1 sequence (P08842 22-583): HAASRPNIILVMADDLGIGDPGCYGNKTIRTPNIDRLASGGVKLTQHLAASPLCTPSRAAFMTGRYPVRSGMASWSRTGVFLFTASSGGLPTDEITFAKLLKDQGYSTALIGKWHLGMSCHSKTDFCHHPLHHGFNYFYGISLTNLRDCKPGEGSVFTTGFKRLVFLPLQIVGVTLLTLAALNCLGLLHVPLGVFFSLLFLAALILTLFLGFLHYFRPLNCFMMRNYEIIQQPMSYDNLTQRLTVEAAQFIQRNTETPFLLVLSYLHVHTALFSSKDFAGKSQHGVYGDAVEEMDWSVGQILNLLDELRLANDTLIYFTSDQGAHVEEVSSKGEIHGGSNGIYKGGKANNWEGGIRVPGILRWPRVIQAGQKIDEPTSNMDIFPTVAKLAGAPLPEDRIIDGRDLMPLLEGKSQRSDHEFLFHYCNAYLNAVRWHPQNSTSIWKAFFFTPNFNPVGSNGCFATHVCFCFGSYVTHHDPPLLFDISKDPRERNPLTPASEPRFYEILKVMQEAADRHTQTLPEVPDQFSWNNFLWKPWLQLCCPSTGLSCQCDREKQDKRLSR
Test: radiometric sulfatase assay, intact JEG-3 monolayer
Type: cell-based
Details: read-out: [drawing 5]; [6,7-3H]oestrone sulfate substrate, 1 h

`CN(C)S(=O)(=O)Oc1ccc(C(c2ccc(C#N)cc2)n2cncn2)cc1Br` (racemic) [compound 42, 2-Bromo-4-((4-cyanophenyl)(1H-1,2,4-triazol-1-yl)methyl)phenyl dimethylsulfamate] showed an IC50 greater than 10 µM.
